Like-named read-outs stand apart in the source and are kept apart here.
Tests used:
BRAF = BRAF (Homo sapiens (Human), UniProt P15056); assay: BRAF kinase activity assay (ADP-Glo); assay type: biochemical
Outline: (§1)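 Compound was tested at nine concentrations (0.01–100 nM, 0.05% DMSO final) against BRAF or CRAF phosphorylating MEK1 with ATP, for 2 h at 30 °C. ADP formed was read by ADP-Glo luminescence, and % inhibition was fitted with a four-parameter log(agonist) model to obtain IC50.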

CRAF = CRAF (Homo sapiens, UniProt P04049); assay: CRAF kinase activity assay (ADP-Glo); assay type: biochemical
Outline: as §1

[1] = tested on: pERK in HCT-116 cells (KRAS G13D); assay: Phospho-ERK inhibition (AlphaLISA SureFire Ultra p-ERK 1/2), HCT116; assay type: cell-based, human; conditions: for HCT116 pERK % Ymin (lowest value of the IC50 curve): Ymin above −20% = minimal or no paradoxical activation
Outline: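 Overnight-seeded cells received compound for an hour before lysis, and phospho-ERK1/2 was then measured with an AlphaLISA SureFire Ultra kit. Percent inhibition relative to vehicle, after trametinib background subtraction, gave IC50 by curve fitting.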

[2] = tested on: pERK in SW480 cells (KRAS G12D); assay: Phospho-ERK inhibition (AlphaLISA), SW480; assay type: cell-based, human
Protocol: All cancer cell lines (A375, A101D, A2058, RKO, HT29 SK-MEL 30, IPC298, HepG2, HCT-116, Lovo, SWV620, SW480, NCI-H358, NCI-H2122, Calu-6, NCIH2087, NCIH1755, NCIH1666 and Mewo) were obtained from ATCC and cultured in RPMI-1640 medium (Gibco) supplemented with 5% heat inactivated fetal bovine serum (FBS, Wisent) at 37° C. under 5% CO2. Cells were maintained in T175 flasks (Greiner). They were passaged by removing the culture medium, washing once in 10 mL of room temperature Phosphate Buffered Saline (PBS; Wisent) and incubating at 37° C. with 2 mL of 0.05% Trypsin (Thermo-Fisher). Trypsin was then inactivated by adding complete growth medium and the cells were then replated in a T175 culture dish at the appropriate dilution. All cell lines were routinely tested for mycoplasma contamination. Tissue type and mutational status of each cell line can be found in Table B.
AlphaLISA® SureFire® Ultra™ p-ERK 1/2 (Thr202/Tyr204) analysis was conducted on cells plated in 100 μL of complete RPMI-1640 growth medium in 96-well flat-bottomed transparent dishes (Costar) at a density indicated in Table C. Cells were maintained overnight at 37° C. under 5% CO2 before treatment with compounds' dilution series for one hour. The cell density in cells/cm^2 corresponds to cell number divided by the area of one well of a 96-well plate ([…]).
In a dilution series 100 μL/well of test substance dilution prepared in complete RPMI-1640 growth media was added to the cells. The dilution series is selected so that ten concentrations cover a range from 10 μM to 0.33 nM. If necessary the initial concentration of 10 μM is increased to 100 μM or lowered to 1 μM (as in the case of A375 and H1666 cells, which are generally more sensitive to the compounds) and further dilution is carried out accordingly. The final concentration of DMSO in the assay is set at 0.5%.
After treatment, media was removed and cells were lysed in 50 μL of 1× AlphaScreen Ultra Lysis Buffer (Perkin Elmer). The AlphaLISA® SureFire® Ultra™ p-ERK 1/2 (Thr202/Tyr2O4) (PerkinElmer) reactions were performed with 5 μL of cell lysate according to the manufacturer's specifications in 384-well proxyplates (Perkin Elmer) followed by overnight incubation of the reactions at room temperature in a humidified chamber. After completion of the reactions, the signals were recorded on an EnVision plate reader (Perkin Elmer) using built in AlphaLISA® settings.
The effect of each compound dilution on the pERK signal was expressed in % inhibition and calculated as follows. An internal 100% inhibition control ([…] trametinib, cat #HY-10999; MedChem Express; CAS #871700-17-3) was included in each plate and used as a measure of pERK background. First, the value obtained for trametinib was subtracted from each data point. The average of DMSO (vehicle) controls (set as 0% inhibition) was established and used to calculate % inhibition: % inhibition=100*(1-((pERK signalcompound)/(pERK signalDMSO)))
The ability of each compound to inhibit pERK signal was expressed as an IC50 value obtained by plotting the inhibition values for each data point of a dilution series and fitting the obtained curves using a log(agonist) versus response-variable slope (four parameters) function using GraphPadPrism (V7.0) or Dotmatics Screening Ultra platform.
When present, paradoxical pERK induction is inferred from the negative % inhibition values observed in the pERK IC50 curves of a compound.

[3] = read-out: Kinase IC50 (nM) BRAF
[4] = read-out: Kinase IC50 (nM) CRAF
[5] = lowest % inhibition value of the IC50 curve, HCT116
[6] = lowest % inhibition value of the IC50 curve, SW480
[7] = HCT116 cells, class symbol before the bracket
[8] = SW480 cells, class symbol before the bracket
[9] = BRAF, read-out: Kinase IC50 (nM), BRAF biochemical kinase assay
[10] = CRAF, read-out: Kinase IC50 (nM), CRAF biochemical kinase assay

Chain of BRAF (P15056 whole entry): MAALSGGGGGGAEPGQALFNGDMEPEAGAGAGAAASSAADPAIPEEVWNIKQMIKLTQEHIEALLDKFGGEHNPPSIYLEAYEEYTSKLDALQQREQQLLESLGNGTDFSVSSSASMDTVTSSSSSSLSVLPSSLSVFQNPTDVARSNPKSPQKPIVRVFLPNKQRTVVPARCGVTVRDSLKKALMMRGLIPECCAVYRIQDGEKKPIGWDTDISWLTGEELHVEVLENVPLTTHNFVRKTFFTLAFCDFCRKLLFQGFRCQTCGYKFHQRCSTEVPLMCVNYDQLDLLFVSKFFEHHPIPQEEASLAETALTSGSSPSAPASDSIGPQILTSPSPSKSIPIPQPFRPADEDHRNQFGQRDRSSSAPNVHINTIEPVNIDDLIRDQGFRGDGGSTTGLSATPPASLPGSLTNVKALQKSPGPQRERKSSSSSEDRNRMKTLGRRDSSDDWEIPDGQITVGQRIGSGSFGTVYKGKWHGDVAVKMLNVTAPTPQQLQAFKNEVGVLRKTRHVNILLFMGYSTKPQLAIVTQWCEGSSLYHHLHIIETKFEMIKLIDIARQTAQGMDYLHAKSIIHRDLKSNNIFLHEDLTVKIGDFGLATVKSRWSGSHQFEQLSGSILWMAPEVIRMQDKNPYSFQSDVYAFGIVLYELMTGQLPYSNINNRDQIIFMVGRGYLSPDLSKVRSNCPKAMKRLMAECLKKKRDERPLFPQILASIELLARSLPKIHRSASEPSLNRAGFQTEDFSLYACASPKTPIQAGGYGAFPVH
Chain of CRAF (P04049 whole entry, looked up): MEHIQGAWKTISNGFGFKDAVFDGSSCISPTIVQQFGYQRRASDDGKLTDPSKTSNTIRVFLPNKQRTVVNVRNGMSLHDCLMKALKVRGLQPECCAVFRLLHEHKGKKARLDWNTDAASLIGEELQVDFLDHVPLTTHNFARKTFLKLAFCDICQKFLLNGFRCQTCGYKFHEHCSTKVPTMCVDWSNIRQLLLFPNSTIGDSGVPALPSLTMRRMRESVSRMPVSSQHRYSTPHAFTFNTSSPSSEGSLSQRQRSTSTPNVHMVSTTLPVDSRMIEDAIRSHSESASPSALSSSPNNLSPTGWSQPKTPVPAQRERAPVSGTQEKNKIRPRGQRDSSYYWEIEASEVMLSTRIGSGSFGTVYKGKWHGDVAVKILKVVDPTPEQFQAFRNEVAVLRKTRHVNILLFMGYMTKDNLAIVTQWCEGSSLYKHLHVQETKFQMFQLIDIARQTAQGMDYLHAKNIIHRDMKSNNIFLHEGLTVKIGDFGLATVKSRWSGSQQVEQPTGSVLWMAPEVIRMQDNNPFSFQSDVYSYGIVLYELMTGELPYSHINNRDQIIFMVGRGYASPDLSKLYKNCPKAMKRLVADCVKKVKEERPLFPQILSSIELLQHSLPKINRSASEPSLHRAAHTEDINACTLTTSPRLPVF

| Structure (SMILES) | IC50 (BRAF; [3]) | IC50 (CRAF; [4]) | HCT116 pERK Ymin % ([1]; HCT116 cells, Ymin in brackets) | IC50 [1, 7] | SW480 pERK Ymin % ([2]; SW480 cells, Ymin in brackets) | IC50 [2, 8] | also measured |
| --- | --- | --- | --- | --- | --- | --- | --- |
| CCc1ccc(S(=O)(=O)Nc2ccc(F)c(Nc3ncnc4ccc(-n5cnc6ccccc65)nc34)c2F)cc1 [Example 10] | > 10 nM | > 50 nM | – | – | – | – | IC50 ([1]; HCT116 cells, 1 h treatment): 10000 to 30000 nM; HCT116 pERK Ymin % [1, 5]: 1%; IC50 ([2]; SW480 cells, 1 h treatment): 1000 to 10000 nM; SW480 pERK Ymin % [2, 6]: 12% |
| COc1ccc(S(=O)(=O)Nc2ccc(F)c(Nc3ncnc4ccc(-n5cnc6c(N)cccc65)nc34)c2F)c(C)c1 [Ex 76] | 1 to 10 nM | 10 to 50 nM | 8% | < 500 nM | 6% | < 500 nM | – |
| COc1ccc(S(=O)(=O)Nc2ccc(F)c(Nc3ncnc4ccc(-c5cnn6ccccc56)nc34)c2F)c(C)c1 [Ex 73] | > 10 nM | > 50 nM | 5% | 1000 to 10000 nM | −1% | 1000 to 10000 nM | – |
| COc1cncc(-c2ccc3ncnc(Nc4c(F)ccc(NS(=O)(=O)c5ccc(OC)cc5C)c4F)c3n2)c1 [Ex 62] | > 10 nM | > 50 nM | −9% | 1000 to 10000 nM | 8% | 1000 to 10000 nM | – |
| O=S(=O)(Nc1ccc(F)c(Nc2ncnc3ccc(-n4cnc5ccccc54)nc23)c1F)c1ccccc1Cl [Example 8] | 1 to 10 nM | < 10 nM | – | – | – | – | IC50 ([1]; HCT116 cells, 1 h treatment): 500 to 1000 nM; HCT116 pERK Ymin % [1, 5]: −2.5%; IC50 ([2]; SW480 cells, 1 h treatment): 500 to 1000 nM; SW480 pERK Ymin % [2, 6]: 4.8% |
| Cc1ncn(-c2ccc3ncnc(Nc4c(F)ccc(NS(=O)(=O)c5ccccc5Cl)c4F)c3n2)c1C [Ex 66] | 1 to 10 nM | 10 to 50 nM | −2% | 1000 to 10000 nM | −5% | 1000 to 10000 nM | – |
| CN(C)C(=O)c1cn(-c2ccc3ncnc(Nc4c(F)ccc(NS(=O)(=O)c5ccccc5Cl)c4F)c3n2)c2cccc(N)c12 [Example 96] | < 1 nM | > 50 nM | 12% | < 500 nM | 12% | < 500 nM | – |
| COc1ccc(S(=O)(=O)Nc2ccc(F)c(Nc3ncnc4ccc(-n5cnc6c(C(N)=O)cccc65)nc34)c2F)c(C)c1 [Example 75] | > 10 nM | 10 to 50 nM | 0% | 500 to 1000 nM | 1% | 500 to 1000 nM | – |
| COc1ccc(S(=O)(=O)Nc2ccc(F)c(Nc3ncnc4ccc(-c5cncs5)nc34)c2F)c(C)c1 [Ex 59] | > 10 nM | 10 to 50 nM | −0.7% | 500 to 1000 nM | −4.9% | 500 to 1000 nM | – |
| Cc1c(Cl)cccc1S(=O)(=O)Nc1cccc(Nc2ncnc3ccc(-n4cnc5ccccc54)nc23)c1F [Example 240] | – | – | – | – | – | – | IC50 (BRAF; Table 5, read-out: Kinase IC50 (nM) BRAF): 1 to 10 nM; IC50 (CRAF; Table 5, read-out: Kinase IC50 (nM) CRAF): 10 to 50 nM; IC50 ([1]; HCT116 cells, Table 5): < 500 nM; HCT116 pERK Ymin % ([1]; lowest value of the curve, HCT116, Table 5): 7%; IC50 ([2]; SW480 cells, Table 5): < 500 nM; SW480 pERK Ymin % ([2]; lowest value of the curve, SW480, Table 5): (−8) % |
| Nc1cccc2c1ncn2-c1ccc2ncnc(Nc3c(F)ccc(NS(=O)(=O)c4ccccc4Cl)c3F)c2n1 [Example 83] | 1 to 10 nM | < 10 nM | −7.3% | < 500 nM | 2.5% | < 500 nM | – |
| O=S(=O)(Nc1ccc(F)c(Nc2ncnc3ccc(-c4cnc5n4CCCC5)nc23)c1F)c1cccc(Cl)c1Cl [Example 561] | – | – | – | – | – | – | IC50 (BRAF; [9]): 1 to 10 nM; IC50 (CRAF; [10]): < 10 nM; IC50 ([1]; HCT116 cells): < 500 nM; HCT116 pERK % Ymin (lowest value of the IC50 curve) ([1]; HCT116 cells): −13% |
| O=S(=O)(Nc1ccc(F)c(Nc2ncnc3ccc(-n4cnc5ccccc54)nc23)c1F)c1ccc(C(F)(F)F)cc1Cl [Example 653] | > 10 nM | > 50 nM | – | – | – | – | IC50 ([1]; HCT116 cells, 1 h treatment): 1000 to 10000 nM; HCT116 pERK Ymin % [1, 5]: −13% |
| Nc1ncnc2c1ncn2-c1ccc2ncnc(Nc3c(F)ccc(NS(=O)(=O)c4ccccc4Cl)c3F)c2n1 [Ex 89] | 1 to 10 nM | > 50 nM | 8% | 1000 to 10000 nM | −3% | 1000 to 10000 nM | – |
| O=S(=O)(Nc1ccc(F)c(Nc2ncnc3ccc(-n4cc(-c5ncc[nH]5)c5ccccc54)nc23)c1F)c1cccc(Cl)c1Cl [Example 207] | 1 to 10 nM | 10 to 50 nM | −11% | 1000 to 10000 nM | – | – | – |
| O=S(=O)(Nc1ccc(F)c(Nc2ncnc3ccc(-c4cnc(N5CCOCC5)s4)nc23)c1F)c1cccc(Cl)c1Cl [Example 631] | – | – | – | – | – | – | IC50 (BRAF; [9]): > 10 nM; IC50 (CRAF; [10]): 10 to 50 nM; IC50 ([1]; HCT116 cells): < 500 nM; HCT116 pERK % Ymin (lowest value of the IC50 curve) ([1]; HCT116 cells): 0% |
| CC(=O)Nc1cccc2c1ncn2-c1ccc2ncnc(Nc3c(F)ccc(NS(=O)(=O)c4ccccc4Cl)c3F)c2n1 [Example 85] | 1 to 10 nM | 10 to 50 nM | 2.9% | 500 to 1000 nM | – | – | – |
| CN(C)C(=O)c1cn(-c2ccc3ncnc(Nc4c(F)ccc(NS(=O)(=O)c5ccccc5Cl)c4F)c3n2)c2ccccc12 [Ex 87] | < 1 nM | 10 to 50 nM | −4.4% | < 500 nM | – | – | – |
| O=S(=O)(Nc1ccc(F)c(Nc2ncnc3ccc(-n4cnc5c(C6CCN(CCO)CC6)cccc54)nc23)c1F)c1cccc(Cl)c1Cl [Example 681] | – | – | – | – | – | – | IC50 (BRAF; [9]): < 1 nM; IC50 (CRAF; [10]): < 10 nM; IC50 ([1]; HCT116 cells): < 500 nM; HCT116 pERK % Ymin (lowest value of the IC50 curve) ([1]; HCT116 cells): −9% |

Source: patent publication US12139488B2, “Pyrido[3,2-d]pyrimidine compounds uses thereof for treating a proliferative disease” (Universite de Montreal, priority 2021, dated 2024)
